Experiments:
[1] = target: T1, Plasmodium vivax guanylate kinase (PvGK) (Plasmodium vivax, UniProt A5K709); experiment: native ESI-FT-ICR-MS titration (optimized source); confirmed by competition with GMP ([…]); type: binding
T1 construct: gene PVX_099895; Full-length guanylate kinase with an N-terminal 6-histidine tag (23545 Da)

[2] = target: T1, Plasmodium vivax guanylate kinase (PvGK); experiment: native ESI-FT-ICR-MS titration (optimized source conditions); type: binding

T1 sequence (A5K709 entry or part of it): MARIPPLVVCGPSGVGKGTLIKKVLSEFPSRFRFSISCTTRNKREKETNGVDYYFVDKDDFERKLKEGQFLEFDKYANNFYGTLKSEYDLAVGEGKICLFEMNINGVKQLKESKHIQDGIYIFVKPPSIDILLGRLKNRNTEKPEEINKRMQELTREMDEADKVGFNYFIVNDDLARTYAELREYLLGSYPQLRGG

Q: Nc1nc2c(ncn2[C@@H]2O[C@H](COP(=O)(O)OP(=O)(O)O)[C@@H](O)[C@H]2O)c(=O)[nH]1 [GDP] was tested. Which Kd [1] did it give?
A: Its Kd is 300 ± 30 nM.

Q: With Nc1nc2c(ncn2[C@@H]2O[C@H](COP(=O)(O)O)[C@@H](O)[C@H]2O)c(=O)[nH]1 [GMP] as the compound, how does the Kd [2] read?
A: The Kd was 1840 ± 110 nM.

Reference: PMC4972871, “Optimization of Electrospray Ionization by Statistical Design of Experiments and Response Surface Methodology: Protein–Ligand Equilibrium Dissociation Constant Determinations” (Journal of the American Society for Mass Spectrometry, 2016)
